Data as given in patent US20030198692A1, “Microbial inhibitory compositions” (priority 2000, published 2003).

Experiments:
Format in all cases: cell-based
[1] = test system: Escherichia coli; assay: Growth of Escherichia coli in the presence of polymyxin B and furanones; conditions: furanone 10 μg/ml with polymyxin B 0.3-1 μg/ml
Procedure: Growth of Gram negative bacteria is not generally affected by furanone compounds alone. […] In order to explore this concept, the antibiotic polymyxin B was included in the initial round of experiments (see FIGS. 2, 3 and 4) involving the bacteria Escherichia coli, Burkholdera cepacia and Pseudomonas aeruginosa. […] Different furanone compounds under test were applied at 10 μg/ml (concentration of stock solution of furanone compound or mixture of compounds was 2 mg/ml) and polymyxin B was employed at concentrations which ranged from 0.3-1 μg/ml (stock solution was 10 mg/ml).

[2] = test system: Corynebacterium jeikeium; assay: Growth of Corynebacterium jeikeium in the presence of furanone 2 and EDTA; conditions: compound 100 μg/ml in combination with EDTA 0.02%
Procedure: Moreover, the growth of the Gram-positive bacteria, Corynebacterium jeikeium, was inhibited by compound 2 (100 μg/ml) in combination with EDTA (0.02%). The lagphase of growth was prolonged for 20 hr.

[3] = test system: Pseudomonas aeruginosa; assay: Growth of Pseudomonas aeruginosa in the presence of furanones, alone or with a cell-permeabilising agent; conditions: for prevention of growth of P. aeruginosa (ranking): furanone 10 μg/ml with EDTA 0.02%
Procedure: Ten furanones (compounds 2, 3, 19, 30, 45, 55, 56, 24/25, 26/27 and 33/34) (see Table 2) were tested against growth of Gram negative bacteria in a combination treatment using a cell permeabilising agent (Polymyxin B and EDTA).
Different furanone compounds under test were applied at 10 μg/ml (concentration of stock solution of furanone compound or mixture of compounds was 2 mg/ml) and polymyxin B was employed at concentrations which ranged from 0.3-1 μg/ml (stock solution was 10 mg/ml).
In addition, EDTA which also affects the permeability of the cell membrane was tested against growth of P. aeruginosa in combination with the different furanones. EDTA was added at a concentration of 0.02%. […] It is possible that they differently allow for different furanones to penetrate the cell membrane.
Growth of Pseudomonas aeruginosa in the presence of citric acid, toluene, Tween 80 and two different quaternary ammonium compounds was further investigated. The tested furanones was furanone 30 and 34 at 10 μg/ml (concentration of stock solution of furanone compound was 10 mg/ml). The used cell-permeability agents were employed at concentrations which ranged from 0.35-0.001%.

[4] = test system: Candida albicans; assay: Growth of Candida albicans in the presence of furanone 57 with or without EDTA
Procedure: The yeast, Candida albicans, was tested in the presence of furanone 57 at 250 ng/ml. […] In combination with 0.01% EDTA the growth of the cells was inhibited for at least 32 hrs.

[5] = furanone 10 μg/ml in combination with citric acid

CCCCC1=C(Br)C(=C(Br)Br)OC1=O [Compound 2]
time period of inhibition of growth of E. coli [1]: 8 h
growth of Corynebacterium jeikeium [2]: inhibited
prolongation of lag phase of growth of Corynebacterium jeikeium [2]: 20 h

O=C1C=C(Br)/C(=C/Br)O1 [Compound 30]
prolongation of lag phase of growth of P. aeruginosa (in words) [3, 5]: also prolonged the lag phase of growth however not as strongly as compound 34
prevention of growth of P. aeruginosa (ranking) [3]: most effective compounds in preventing growth
growth of P. aeruginosa ([3]; furanone 10 μg/ml with Tween 80): slight growth inhibition
growth of P. aeruginosa ([3]; furanone 10 μg/ml with didecyldimethylammonium bromide): inhibited the growth of P. aeruginosa
activity against P. aeruginosa (ranking) ([3]; furanone 10 μg/ml with polymyxin B 0.3-1 μg/ml): most active compound
growth of P. aeruginosa ([3]; furanone 10 μg/ml with tetrabutylammoniumhydrogen sulfate (slightly more active of the two quaternary ammonium compounds)): inhibited the growth of P. aeruginosa

O=C1C=C/C(=C/Br)O1 [Compound 56]
prevention of growth of P. aeruginosa (ranking) [3]: most effective compounds in preventing growth

CCCCCC(F)C1=C(Br)/C(=C/Br)OC1=O (centres unmarked) [Compound 57]
duration of inhibition of growth of C. albicans cells ([4]; compound 250 ng/ml alone): 24 h
duration of inhibition of growth of C. albicans cells ([4]; compound 250 ng/ml in combination with 0.01% EDTA): at least 32 hrs

CCCC(F)C1=C(Br)/C(=C/Br)OC1=O (centres unmarked) [Compound 45]
time period of inhibition of growth of E. coli [1]: 8 h

CCCCCC(Br)C1=CC(=C(Br)Br)OC1=O (centres unmarked) [Compound 34]
prolongation of lag phase of growth of P. aeruginosa [3, 5]: approximately 3 hours
